Measurements as given in patent publication US20240092778A1, “TOPICAL PHARMACEUTICAL COMPOSITIONS AND METHODS” (PYRAMID BIOSCIENCES, INC., priority 2020, published 2024).
Read-outs that look alike come from different tables or passages of the source.

Tests used:
TRKC = target: T1, TRKC (Homo sapiens, UniProt Q16288); assay: TRKC activity in cell-based system overexpressing wild-type full-length receptor; details: cell-based systems overexpressing wild-type, human TRK receptors
T1 construct: in cell-based systems overexpressing wild-type, full-length, human TRK receptors; expressed in transfected cells
T1 sequence (Q16288 32-839): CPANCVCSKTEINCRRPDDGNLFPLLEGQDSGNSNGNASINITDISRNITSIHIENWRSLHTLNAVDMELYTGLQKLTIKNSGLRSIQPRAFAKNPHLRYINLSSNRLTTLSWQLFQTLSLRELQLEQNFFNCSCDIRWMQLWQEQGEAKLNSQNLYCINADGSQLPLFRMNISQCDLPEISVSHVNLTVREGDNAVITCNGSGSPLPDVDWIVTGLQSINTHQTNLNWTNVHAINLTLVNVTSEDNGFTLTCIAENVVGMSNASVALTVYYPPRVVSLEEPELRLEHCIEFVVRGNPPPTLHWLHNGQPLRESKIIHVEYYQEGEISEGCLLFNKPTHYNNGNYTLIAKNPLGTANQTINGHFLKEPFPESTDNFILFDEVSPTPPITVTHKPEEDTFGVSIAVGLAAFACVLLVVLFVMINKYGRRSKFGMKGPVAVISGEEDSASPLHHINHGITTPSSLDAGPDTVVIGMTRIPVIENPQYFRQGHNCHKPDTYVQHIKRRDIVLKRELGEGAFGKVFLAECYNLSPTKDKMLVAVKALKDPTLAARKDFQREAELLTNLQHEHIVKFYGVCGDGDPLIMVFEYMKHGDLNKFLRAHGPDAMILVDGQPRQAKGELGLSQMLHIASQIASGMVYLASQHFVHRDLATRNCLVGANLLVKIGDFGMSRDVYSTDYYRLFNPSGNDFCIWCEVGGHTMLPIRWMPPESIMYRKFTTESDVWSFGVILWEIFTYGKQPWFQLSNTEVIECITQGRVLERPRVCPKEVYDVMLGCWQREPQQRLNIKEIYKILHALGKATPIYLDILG
Source text: (§1) Compound A is a highly specific pan-TRK inhibitor with a mechanism of action that is competitive with the adenosine triphosphate (ATP) binding site of TRKA.

[1] = system: adults with recurrent glioblastoma multiforme (GBM); details: up to 60 mg daily; cited from earlier work
TRKB = target: T2, TRKB (Homo sapiens, UniProt Q16620); assay: TRKB activity in cell-based system overexpressing wild-type full-length receptor; details: cell-based systems overexpressing wild-type, human TRK receptors
T2 construct: in cell-based systems overexpressing wild-type, full-length, human TRK receptors; expressed in transfected cells
T2 sequence (Q16620 32-822): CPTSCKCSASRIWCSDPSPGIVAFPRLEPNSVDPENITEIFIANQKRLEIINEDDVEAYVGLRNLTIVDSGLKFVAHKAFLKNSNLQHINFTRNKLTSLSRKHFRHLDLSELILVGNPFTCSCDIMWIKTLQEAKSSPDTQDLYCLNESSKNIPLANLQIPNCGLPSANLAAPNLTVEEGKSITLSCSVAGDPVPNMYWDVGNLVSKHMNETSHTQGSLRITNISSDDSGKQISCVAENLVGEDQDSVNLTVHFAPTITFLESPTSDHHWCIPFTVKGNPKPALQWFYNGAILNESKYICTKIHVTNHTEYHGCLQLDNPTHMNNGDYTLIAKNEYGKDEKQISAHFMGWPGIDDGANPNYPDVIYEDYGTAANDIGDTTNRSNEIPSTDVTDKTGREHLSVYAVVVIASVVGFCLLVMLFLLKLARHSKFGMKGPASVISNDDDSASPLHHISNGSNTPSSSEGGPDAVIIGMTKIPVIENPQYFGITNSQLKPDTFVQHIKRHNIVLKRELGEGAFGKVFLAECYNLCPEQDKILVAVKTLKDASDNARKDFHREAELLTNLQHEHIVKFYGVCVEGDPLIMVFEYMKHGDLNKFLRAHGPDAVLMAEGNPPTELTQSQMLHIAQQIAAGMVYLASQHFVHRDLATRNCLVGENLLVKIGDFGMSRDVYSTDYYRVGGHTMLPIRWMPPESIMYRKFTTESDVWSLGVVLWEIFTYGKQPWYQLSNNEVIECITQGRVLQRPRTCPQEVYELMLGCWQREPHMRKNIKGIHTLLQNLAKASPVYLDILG
Source text: as §1

TRKA = target: T3, TRKA (Homo sapiens, UniProt P04629); assay: TRKA inhibition in cells (IC50); type: cell-based; details: read-out: half maximal inhibitory concentration (IC50) for TRKA
T3 construct: host or cells: cells, not specified
T3 sequence (P04629 33-796): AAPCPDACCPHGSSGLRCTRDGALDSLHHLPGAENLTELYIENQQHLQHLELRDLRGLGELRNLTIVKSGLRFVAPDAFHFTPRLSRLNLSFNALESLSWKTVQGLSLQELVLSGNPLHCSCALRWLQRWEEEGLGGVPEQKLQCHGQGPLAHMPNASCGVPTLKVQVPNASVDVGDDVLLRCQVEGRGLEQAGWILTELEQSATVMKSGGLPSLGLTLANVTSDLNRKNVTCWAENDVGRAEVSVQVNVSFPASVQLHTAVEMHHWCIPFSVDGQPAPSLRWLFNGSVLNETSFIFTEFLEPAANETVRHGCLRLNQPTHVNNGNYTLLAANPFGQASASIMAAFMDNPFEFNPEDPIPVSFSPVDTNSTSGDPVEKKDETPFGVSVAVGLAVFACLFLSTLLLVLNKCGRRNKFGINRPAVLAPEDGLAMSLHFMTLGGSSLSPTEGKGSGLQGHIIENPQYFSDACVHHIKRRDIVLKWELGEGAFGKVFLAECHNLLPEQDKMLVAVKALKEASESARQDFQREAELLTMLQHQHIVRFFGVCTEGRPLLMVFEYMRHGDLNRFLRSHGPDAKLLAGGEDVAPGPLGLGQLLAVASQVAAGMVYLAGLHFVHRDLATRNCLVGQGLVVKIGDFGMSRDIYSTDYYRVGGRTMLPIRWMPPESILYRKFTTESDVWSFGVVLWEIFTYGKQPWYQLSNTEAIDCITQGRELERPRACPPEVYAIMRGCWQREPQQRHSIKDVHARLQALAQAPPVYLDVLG
Source text: as §1

human skin = assay: Cumulative irritant patch test (RIPT, 21 days) in healthy participants; details: occlusive patch, healthy subjects
Source text: The objective of this study was to assess the primary irritancy potential of Compound A mesylate Topical Cream in human skin using a Repeat Insult Patch Testing (RIPT) over twenty-one (21) days.
This RIPT was an open-label, single-arm (cell), randomized, evaluator-blinded study wherein test products were applied under an occlusive dressing to the upper back or upper arm continuously and repeatedly to the same site for a period of 21 days. Three concentrations of The Cream described in Example 13 (0.1%, 0.03%, 0.01%) and Vehicle (Placebo Cream—0%) were applied to the skin of healthy subjects aged 18-70 with a Fitzpatrick Skin Type of I-III. In addition, one site was treated with 0.4 ml of 0.25% sodium lauryl sulfate (SLS) as a positive control and another site was treated with a plain Webril patch (cotton cloth) which served as a negative control. The total daily dose of Compound A received by each subject was 560 μg (0.4 ml of each of the three concentrations/3 different sites) or approximately 8 μg/kg. The evaluator graded the level of irritation for each test site at every study visit and was blinded as to the identity of the test products. The targeted sample size was at least 25 subjects (n=25) at completion.
Approximately 0.4 ml of each test material was spread uniformly onto a 15 mm diameter circular disc of non-absorbing cotton cloth (Webril) using micropipettes or plastic tuberculin syringes. The treated circular disc was applied to the designated skin site (see Randomization Section below) measuring 15 mm in diameter on the upper arm or upper back. In addition to the test products, one site was treated with 0.4 ml of 0.25% sodium lauryl sulfate (SLS) as a positive control and another site was treated with a plain Webril patch (cotton cloth) as a negative control. Each site was covered with an occlusive tape (Blenderm, 3M) and the entire patch fastened to the skin with Scanpor or Hypafix Tape to ensure intimate contact with the skin. The initial patch was applied on Day 0 and grading began on Day 1.
Subjects returned to the testing facility once daily (Monday to Friday). […] Subjects were questioned and assessed for adverse events as well as any changes in their health or concomitant medications at every study visit. […]
All patches were inspected at each study visit and adhesion issues were noted when present. Patch sites were inspected and irritant reactions provoked during the study were recorded daily (Monday-Friday). […]
The CII was calculated for each product as well as the positive and negative control sites. The CII is the ratio calculated by dividing the sum of the cumulative irritation scores (SCS) from all subjects by the number of subjects in the completed panel×the maximum tolerated score per patch site (3)×the number of grading assessments (15).

[2] = system: Primary human keratinocytes; details: at their respective concentration (Dox 1 μM) after 24 and 72 hours of exposure
Experimental: Cell death/apoptosis was determined by Propidium Iodide (PI) and Annexin V staining.
For the cell death/apoptosis, human primary neonatal keratinocytes were cultured (5,000 cells/well) in clear bottom 96-well plates overnight. The next morning, growth medium was removed and replaced with 50% supplemented keratinocyte growth medium containing compounds and controls.
After 24 or 72 hours treatment, 200 μL of the prepared 1:100 Annexin V (Biovision, catalog number K101) and PI in 1× binding buffer solution was added to each of the wells and allowed to incubate at room temperature for 5 minutes. Cells were then washed with DPBS (Dulbecco's Phosphate-Buffered Saline) and fixed for 30 minutes in 2% Paraformaldehyde (PFA). Following fixation, cells were washed 3× with 200 μL of DPBS. A final volume of 100 μL of DPBS were added to the wells. Quantification of Annexin V and PI were assessed using the Array Scan High Content Imaging System (ThermoFisher).
The signal quantified for Annexin V, an early apoptosis event marker (FIG. 5) and PI to assess cell death (apoptosis and necrosis) was compared to negative control (50% supplemented media) to determine the percentage of viability (FIG. 6).

minipigs = assay: Non-GLP 7-day intravenous study; type: in vivo, minipig; details: daily for 7 days
Experimental: To understand the relationship between potential Compound A mesylate exposure and toxicity (clinical observations), a non-GLP intravenous study was conducted. In this study, minipigs were administered up to 10 mg/kg daily for 7 days by intravenous administration to determine Compound A mesylate exposure and clinical observations. Overall, minipigs tolerated intravenous dose of up to 10 mg/kg/day for 7 seven days without any adverse clinical signs.

[3] = One-month rat oral toxicity study; type: in vivo; details: in vivo, oral, for the myocardial findings
Source text: (§2) Toxicity evaluation of Compound A mesylate salt has comprised range-finding and pivotal repeat dose dermal and oral toxicology studies in minipigs, rats and dogs. The dermal route of administration was chosen because it is the intended to be the human therapeutic route. As per International Council for Harmonisation (ICH) guidelines, the oral route was selected in rats and dogs to assess systemic toxicity and to support dermal administration. The minipig was selected as the species for formal dermal toxicology testing of Compound A mesylate salt.
(§3) The NOAEL for these findings was 0.5 mg/kg/day.

rats = assay: One-month rat oral toxicity study; type: in vivo
Source text: as §2, §3

guinea pigs = assay: Contact sensitization; type: in vivo, guinea pig
rabbits = assay: Skin irritation (erythema and edema); type: in vivo, rabbit
[4] = Solubility of Compound A mesylate salt Form B in excipients and buffers; type: physicochemical
Experimental: The solubility was determined visually. The approximate amount of drug dissolved was calculated as mg/g of compound soluble in each solvent tested.
The steps involved in performing the solubility study were as follows: • a) Label scintillation vials appropriately for each excipient that were tested. • b) Stir bar was placed in each vial and weighed the empty vial containing stir bar and cap with inert liner. Recorded the TARE weight. • c) Approximately 5.0 g of each excipient was weighed into the designated vial and approximately 5 mg of the API (Compound A mesylate salt) was added to into each vial. • d) All the closed vials were placed on a multi-position stir plate and allowed to mix for at least 15 minutes at ambient conditions. • e) Visually inspected to see if the API has completely dissolved. • f) If the API has dissolved, the last 3 steps were repeated. Additional API aliquots added to the mixture were recorded till saturation solubility reached. […] Stirring the solutions was continued overnight at ambient temperature to confirm solubility is maintained. • g) If API has not completely dissolved, continue stirring samples overnight at ambient conditions. • h) The final weight of the vial, cap, stir bar, and sample were recorded. • i) Further, the final observations were recorded as needed to document the observations.

[5] = 28-day repeat dose dermal toxicity study; type: in vivo, minipig; details: Gottingen, minipig, in vivo, topical or ocular; for Cmax / AUC(0-t): 1 mg/kg/day dermal, Day 28; for AUC(0-t): read-out: AUC0-Tlast
Source text: as §2
(§4) To support dermal administration of Compound A mesylate, in addition to oral repeat-dose toxicity studies in rats and dogs, dermal toxicity studies in minipigs were conducted. A 28-day repeat dose toxicity study was conducted by dermal application of Compound A mesylate salt at doses in the range of 0.1 mg/kg to 1 mg/kg.
(§5) The 28-day dose toxicity study was initiated at doses in the range of 0.1 to 1.0 mg/kg.

Gottingen Minipigs = assay: 28-day repeat dose dermal toxicity study; type: in vivo, minipig
Source text: as §2, §4, §5

[6] = Drug excipient compatibility study (physical appearance, % label claim, total impurities); type: physicochemical
Experimental: The goal of the drug excipient compatibility study was to identify excipients that are incompatible with the Compound A mesylate salt (Form B), resulting in high impurity growth compared to the baseline (To). The compatibility of the compound in selected excipients was assessed by mixing the compound with individual excipients and placing the mixtures on stability studies for 2 or 4 weeks at 25° C./60% RH and 40° C./75% RH. If the compound was insoluble in any excipient, the sample was prepared by first dissolving Compound A mesylate salt in a solvent (purified water) and then mixing with the excipient in a 1:1 ratio. A stock solution of the Compound A mesylate salt in water (0.45% w/w) was used. The total level of impurities over 4 weeks at the two stability conditions were measured.
Physical appearance of Drug-Excipient mixture was evaluated visually, and the observations were recorded which are summarized in Table 2.
In summary, the compound was stable when mixed with the following chemicals: isopropyl myristate, ethanol, medium chain triglycerides, light mineral oil, cyclomethicone, white petrolatum, span 80, glycerin, sorbitol solution 70%, HPMC, HPC, and stearyl alcohol.

bovine cornea = assay: Bovine corneal opacity and permeability (BCOP) assay
[7] = Dog oral toxicity studies (one-month); type: in vivo; details: in vivo, one-month study
Source text: as §2
(§6) The NOAEL for the one-month study was 2 mg/kg/day.

dogs = assay: Dog oral toxicity studies (one-month); type: in vivo
Source text: as §2, §6

[8] = system: Primary human keratinocytes; assay: Human primary keratinocytes proliferation assay (BrdU incorporation); type: cell-based; details: for IC50: Homo sapiens, Keratinocyte, read-out: calculated potency (IC50) to block cell proliferation
Experimental: Primary human keratinocytes (KMF112410A) were grown in 96-well plates and exposed to different concentration of Compound A mesylate salt, 0.1 nM to 100 μM, for 24 hours or 72 hours.
After 4 hours, the medium was removed and 100 μL of the Fixing/Denaturing solution (paraformaldehyde) was added to each well and allowed to incubate at room temperature for 30 minutes. After 30 minutes, the fixing solution was removed and 100 μl of the prepared 1× detection antibody (Cell Signaling Assay Kit, Catalogue No. 6813) was added to each well and allowed to incubate at room temperature for 1 hour. The plate was then washed 3 times with prepared wash buffer (details of wash buffer; PBS saline).
After washing, 100 μL of the prepared 1× Horseradish Peroxidase (HRP)-conjugated secondary antibody solution was added to each well and allowed to incubate at room temperature for 30 minutes. The plate was then washed 3 times with prepared wash buffer.
After washing the 100 μL 3,3′,5,5′-Tetramethylbenzidine (TMB) substrate was added to each well and incubated 30 minutes at room temperature. After 30 minutes, 100 μL of stop solution ([…]) was added to each well and the absorbance was read at 450 nm using a microplate Reader SpectraMax iD3 (Molecular Devices). The magnitude of the absorbance for the developed color is proportional to the quantity of BrdU incorporated into cells, which is a direct indication of cell proliferation, and negative control (50% supplemented keratinocyte growth medium alone) was used as reference to evaluate cell proliferation inhibition (levels <100%) or activation (levels >100%).

[9] = T = 0 (Table 3a, 25° C./60% RH)
[10] = T = 0 (Table 3b, 40° C./75% RH)

Structure (SMILES): CC(C)Oc1cc(-n2cnc3ccc(N[C@@H](C)c4ncc(F)cn4)nc32)n[nH]1 [Compound A, N-[(1S)-1-(5-fluoropyrimidin-2-yl)ethyl]-3-(5-isopropoxy-1H-pyrazol-3-yl)-3H-imidazo[4,5-b]pyridin-5-amine]
- in-vitro activity against TRKC, concentration (TRKC): below 5 nM
- early efficacy signals in GBM patients [1]: No early efficacy signals
- in-vitro activity against TRKB, concentration (TRKB): below 5 nM
- IC50 (TRKA): 0.2 nM

Structure (SMILES): CCCCCCCCCCCCOS(=O)(=O)[O-].[Na+] [0.25% Sodium Lauryl Sulfate, sodium lauryl sulfate]
- Cumulative Irritation Index (CII) (human skin): 0.24
- Mean Cumulative Irritation Score (human skin): 10.89
- Mean Daily Score (human skin): 0.73
- Sum of Cumulative Scores (human skin): 294

Structure (SMILES): COC(=O)[C@@]1(O)C[C@H]2O[C@]1(C)n1c3ccccc3c3c4c(c5c6ccccc6n2c5c31)C(=O)NC4 [Compound K252a]
- cell death (Annexin V / PI) versus negative control [2]: significant cell death

Structure (SMILES): CC(C)Oc1cc(-n2cnc3ccc(N[C@@H](C)c4ncc(F)cn4)nc32)n[nH]1.CS(=O)(=O)O [Compound A mesylate salt, N-[(1S)-1-(5-fluoropyrimidin-2-yl)ethyl]-3-(5-isopropoxy-1H-pyrazol-3-yl)-3H-imidazo[4,5-b]pyridin-5-amine mesylate]
- tolerated intravenous dose without any adverse clinical signs (minipigs): up to 10 mg/kg/day
- NOAEL at 1 month [3]: 0.5 mg/kg/day
- histopathological findings (rats): myocardial inflammation, fibrosis and increased plasma phosphate and Troponin I in a minority of animals
- food consumption and body weight gain (rats; all dose levels): marked increase
- contact sensitization (guinea pigs): not considered to be contact sensitizers
- irritation (erythema and edema) (rabbits): non-irritant
- Solubility ([4]; in Ethanol, 24 hours at room temperature, visual): ≥6.61 mg/g
- water solubility ([4]; in water): ~9.5 % w/w
- Observation ([4]; solubility study in Citrate buffer (pH 5.6)): Aggregated
- Observation ([4]; solubility study in Ethanol): Solubilized
- Observation ([4]; solubility study in Phosphate buffer (pH 7.4)): Aggregated
- NOAEL at 28 days ([5]; both sexes, dermal, 28 days): 1 mg/kg/day
- Cmax ([5]; female, females): 2.52 ng/mL
- AUC(0-t) ([5]; female, females): 37.2 ng·h/mL
- Cmax ([5]; male, males): 3.03 ng/mL
- AUC(0-t) ([5]; male, males): 32.6 ng·h/mL
- tolerability of dermal application (Gottingen Minipigs; 0.1, 0.3, and 1 mg/kg/day for 28 consecutive days): well tolerated
- systemic exposure after dermal administration compared to intravenous administration (Gottingen Minipigs; minipigs): significantly lower
- % Label Claim [6, 9]: 99.9%
- Total Impurities (%) [6, 9]: 0.00%
- % Label Claim [6, 10]: 99.9%
- Total Impurities (%) [6, 10]: 0.00%
- % Label Claim ([6]; T = 2 weeks, 25° C./60% RH): 99.2%
- Total Impurities (%) ([6]; T = 2 weeks, 25° C./60% RH): 0.00%
- % Label Claim ([6]; T = 2 weeks, 40° C./75% RH): 99.7%
- Oxidation Adjusted ([6]; T = 2 weeks, 40° C./75% RH): 0.00
- Total Impurities (%) ([6]; T = 2 weeks, 40° C./75% RH): 0.00%
- % Label Claim ([6]; T = 4 weeks, 25° C./60% RH): 100.5%
- Total Impurities (%) ([6]; T = 4 weeks, 25° C./60% RH): 0.00%
- % Label Claim ([6]; T = 4 weeks, 40° C./75% RH): 99.1%
- Oxidation Adjusted ([6]; T = 4 weeks, 40° C./75% RH): 0.00
- Total Impurities (%) ([6]; T = 4 weeks, 40° C./75% RH): 0.00%
- ocular irritation (bovine cornea): did not induce ocular irritation
- NOAEL at 1 month [7]: 2 mg/kg/day
- effects on body weight, food consumption, clinical pathology, or histopathology (dogs): no compound-related effects
- tolerability (dogs; episodes of emesis and soft/fluid feces): generally well tolerated
- IC50 ([8]; 24 hours): 1250 nM
- IC50 ([8]; 72 hours): 97 nM
- dose showing significant inhibition of proliferation ([8]; after 24 hours of treatment): ≥ 100 nM
- dose showing significant inhibition of proliferation ([8]; after 72 h treatment): ≥ 10 nM
